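Test compounds were applied to cells in 96-well plates for 48 hours at 5 doses. Abbreviation: GI50, concentration required for 50% inhibition of growth.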 Calls of active or inactive are those of the source. Cut-off read from the data, not from the text of the source: active = GI50 up to about 1.1 µM and inactive = higher.
How the values were obtained:
Assay in all cases: NCI anticancer screen, dose series, 48 h
786-0 = system: 786-0
A549 = system: A549
ACHN = system: ACHN
CAKI-1 = system: CAKI-1
COLO 205 = system: COLO 205
HCC 2998 = system: HCC 2998
HL-60 = system: HL-60
HT-29 = system: HT-29
M14 = system: M14
MDA-MB-435 = system: MDA-MB-435
MDA-N = system: MDA-N
MOLT-4 = system: MOLT-4
NCI-H460 = system: NCI-H460
RPMI-8226 = system: RPMI-8226
SF-268 = system: SF-268
SF-295 = system: SF-295
SN12C = system: SN12C
U-251 = system: U-251
UACC-257 = system: UACC-257

SMILES	GI50 (786-0)	GI50 (A549)	GI50 (ACHN)	GI50 (CAKI-1)	GI50 (COLO 205)	GI50 (HCC 2998)	GI50 (HL-60)	GI50 (HT-29)	GI50 (M14)	GI50 (MDA-MB-435)	GI50 (MDA-N)	GI50 (MOLT-4)	GI50 (NCI-H460)	GI50 (RPMI-8226)	GI50 (SF-268)	GI50 (SF-295)	GI50 (SN12C)	GI50 (U-251)	GI50 (UACC-257)
COc1ccc2c(c1)CC1C3(CCCCC23)CC[N+]1(C)C (stereo not given)	> 100 µM (inactive)	> 100 µM (inactive)	> 100 µM (inactive)	> 100 µM (inactive)	> 100 µM (inactive)	> 100 µM (inactive)	50.5 µM (inactive)	> 100 µM (inactive)	> 100 µM (inactive)	84.9 µM (inactive)	> 100 µM (inactive)	> 100 µM (inactive)	> 100 µM (inactive)	> 100 µM (inactive)	90.8 µM (inactive)	> 100 µM (inactive)	38.7 µM (inactive)	66.7 µM (inactive)	> 100 µM (inactive)
CN1CCC/C1=C1\C(=O)c2cccn2C1=O	> 100 µM (inactive)	> 100 µM (inactive)	> 100 µM (inactive)	> 100 µM (inactive)	> 100 µM (inactive)	> 100 µM (inactive)	> 100 µM (inactive)	> 100 µM (inactive)	> 100 µM (inactive)	> 100 µM (inactive)	> 100 µM (inactive)	> 100 µM (inactive)	> 100 µM (inactive)	> 100 µM (inactive)	> 100 µM (inactive)	> 100 µM (inactive)	> 100 µM (inactive)	> 100 µM (inactive)	> 100 µM (inactive)
CC1CNC(c2ccc(-c3nc(-c4ccc(C5=NC(C)CN5)cc4)nc(N(C)C)n3)cc2)=N1 (stereo not given)	1.28 µM (inactive)	3.02 µM (inactive)	3.01 µM (inactive)	17.6 µM (inactive)	1.1 µM (active)	1.83 µM (inactive)	2.62 µM (inactive)	1.79 µM (inactive)	3.21 µM (inactive)	1.46 µM (inactive)	1.85 µM (inactive)	0.681 µM (active)	3.27 µM (inactive)	3.78 µM (inactive)	2 µM (inactive)	4.22 µM (inactive)	1.47 µM (inactive)	0.991 µM (active)	3.08 µM (inactive)
N#Cc1c2ccc([N+](=O)[O-])cc2c(=O)n2c1[nH]c1ccc(C(F)(F)F)cc12	40.6 µM (inactive)	> 55.8 µM (inactive)	48 µM (inactive)	60.8 µM (inactive)	16.9 µM (inactive)	15.2 µM (inactive)	0.254 µM (active)	11.2 µM (inactive)	24.5 µM (inactive)	54 µM (inactive)	> 64.9 µM (inactive)	14.5 µM (inactive)	21.1 µM (inactive)	4.48 µM (inactive)	39.6 µM (inactive)	14.4 µM (inactive)	> 42.4 µM (inactive)	26.4 µM (inactive)	> 88.7 µM (inactive)
Cc1cc(Cl)nc2nc(Cl)c(N)cc12	2.86 µM (inactive)	13.5 µM (inactive)	5.38 µM (inactive)	0.354 µM (active)	2.06 µM (inactive)	1.86 µM (inactive)	1.77 µM (inactive)	2.15 µM (inactive)	8.67 µM (inactive)	2.22 µM (inactive)	1.88 µM (inactive)	4.6 µM (inactive)	2.38 µM (inactive)	2.26 µM (inactive)	2.29 µM (inactive)	12.3 µM (inactive)	1.9 µM (inactive)	2.05 µM (inactive)	1.87 µM (inactive)
CC(C)c1ccc2c(c1)CCC1C(C)(CN)CCCC21C (stereo not given)	1.56 µM (inactive)	1.8 µM (inactive)	1.74 µM (inactive)	1.41 µM (inactive)	0.575 µM (active)	0.0438 µM (active)	1.31 µM (inactive)	0.914 µM (active)	1.67 µM (inactive)	1.44 µM (inactive)	1.51 µM (inactive)	1.32 µM (inactive)	1.22 µM (inactive)	0.653 µM (active)	1.65 µM (inactive)	1.82 µM (inactive)	1.71 µM (inactive)	1.38 µM (inactive)	1.69 µM (inactive)
CC(=O)OCC(OC(C)=O)C(OC(C)=O)C(/C=N\Nc1nc2ccccc2c(=O)[nH]1)=N\Nc1nc2ccccc2c(=O)[nH]1 (stereo not given)	> 100 µM (inactive)	> 100 µM (inactive)	> 100 µM (inactive)	> 100 µM (inactive)	> 100 µM (inactive)	19.1 µM (inactive)	> 100 µM (inactive)	> 100 µM (inactive)	> 100 µM (inactive)	> 100 µM (inactive)	> 100 µM (inactive)	> 100 µM (inactive)	22.3 µM (inactive)	> 100 µM (inactive)	> 100 µM (inactive)	> 100 µM (inactive)	> 100 µM (inactive)	> 100 µM (inactive)	17.3 µM (inactive)
CC(C)(C)OC(=O)NCC(c1c[nH]c2cc(Br)ccc12)c1c[nH]c2cc(Br)ccc12	18.6 µM (inactive)	20.1 µM (inactive)	16.7 µM (inactive)	26.9 µM (inactive)	15.6 µM (inactive)	18.9 µM (inactive)	27.2 µM (inactive)	16.9 µM (inactive)	18.7 µM (inactive)	16.8 µM (inactive)	18.5 µM (inactive)	34.6 µM (inactive)	21.2 µM (inactive)	32.7 µM (inactive)	16.3 µM (inactive)	18.6 µM (inactive)	18.5 µM (inactive)	17.3 µM (inactive)	19.9 µM (inactive)
CC(=O)OC1COC(Nc2nc(NCc3ccccc3)n(C)c(=O)c2N=O)C(OC(C)=O)C1OC(C)=O (stereo not given)	> 10 µM (inactive)	> 10 µM (inactive)	> 10 µM (inactive)	> 10 µM (inactive)	> 10 µM (inactive)	> 10 µM (inactive)	> 10 µM (inactive)	> 10 µM (inactive)	> 10 µM (inactive)	> 10 µM (inactive)	> 10 µM (inactive)	> 10 µM (inactive)	> 10 µM (inactive)	> 10 µM (inactive)	> 10 µM (inactive)	> 10 µM (inactive)	> 10 µM (inactive)	> 10 µM (inactive)	> 10 µM (inactive)
CC(=O)NC(C)(C)C1CCC(C)CC1 (stereo not given)	> 100 µM (inactive)	> 100 µM (inactive)	> 100 µM (inactive)	> 100 µM (inactive)	> 100 µM (inactive)	> 100 µM (inactive)	> 100 µM (inactive)	> 100 µM (inactive)	> 100 µM (inactive)	> 100 µM (inactive)	> 100 µM (inactive)	> 100 µM (inactive)	> 100 µM (inactive)	> 100 µM (inactive)	> 100 µM (inactive)	> 100 µM (inactive)	> 100 µM (inactive)	> 100 µM (inactive)	> 100 µM (inactive)

Reference: ChEMBL document CHEMBL1201862, “PubChem BioAssay data set” (2004)
